# Data as given in paper PMC12612973, “Inhibition of Human Amylin Aggregation: In Silico and In Vitro Studies” (ACS Omega, 2025).
# Where “and” joins values, the source holds several entries; their conditions need not be identical. Identical values can stand only once.
# Tests used:
# human amylin (hIAPP) [1] = biological target: T1, human amylin (hIAPP) (Homo sapiens, UniProt P10997); test: Thioflavin T (ThT) fluorescence assay of amylin aggregation; type: biochemical; details: for inhibition at 10 µM: read-out: ThT inhibition % (mean ± SEM), compound 10 μM, amylin 15 μM, 36 h incubation, 3 trials; for ThT inhibition % (mean ± SEM): compound 10 μM, amylin 15 μM, 36 h incubation, 3 trials
# T1 construct: purchased Bachem USA
# T1 sequence (P10997 34-70 limits assumed): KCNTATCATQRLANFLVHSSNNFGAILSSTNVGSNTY
# Method: (§1) A stock solution of amylin (1 mM) (purchased from Bachem USA), peptide sequence: […] amide (with disulfide bond between Cys2 and Cys7), was prepared in 100% hexafluoroisopropyl alcohol (HFIP) (purchased from Sigma-Aldrich) and stored at −20 °C. , Aliquots of amylin peptide were filtered through a 0.22 μm filter from the stock solution and freeze-dried. For kinetic experiments, 15 μM of amylin was prepared in 50 mM Tris-HCl buffer (pH 7.4), as investigated in previous studies by Chaari et al., , Samples of amylin were prepared in the presence or absence of inhibitors. Each compound was dissolved in DMSO and further diluted with the buffer used to solubilize the amylin. The final mixture contained 15 μM amylin, 10 μM of the test compound, 2% DMSO or 15 μM amylin, and 2% DMSO without the compound (negative control). Also 15 μM amylin, 10 μM of oleuropein aglycone and 2% DMSO was used as a positive control. The prepared solutions were incubated under physiological conditions (pH 7.4 and 37 °C) for amylin aggregation. Samples were incubated for 36 h to test for amylin aggregation, and measurements were conducted at different time points.
# Amylin aggregation was monitored by characteristic changes in Thioflavin T (ThT) fluorescence intensity. A ThT stock solution (15 μM) was prepared in deionized water at pH 7.4. The amylin samples were mixed with the ThT solution and allowed to incubate. ThT fluorescence was measured using the PerkinElmer model LS 55 fluorescence spectrophotometer (PerkinElmer, USA), with an excitation wavelength of 440 nm and an emission wavelength of 480 nm. ,− The emission and excitation slits were set to 5 nm, and a 1 cm cuvette was used for all experiments. Nonspecific background fluorescence was subtracted from the samples using appropriate blanks in the absence of proteins. Each experiment was performed in triplicate.
# human amylin (hIAPP) [2] = biological target: T1, human amylin (hIAPP); test: Dynamic light scattering (DLS) assay of amylin aggregation; type: biochemical; details: 36 h incubation; for inhibition at 10 µM: compound 10 μM, amylin 15 μM, 3 trials, read-out: DLS inhibition % (mean ± SEM)
# Method: as §1
# DLS (Zetasizer, Malvern) was used at a wavelength of 633 nm to measure the average diffusion coefficient distribution of amylin particles and the aggregation percentage. Samples were diluted 10-fold, and 50 μL was placed into a 96-well plate. The total light scattering intensity at a 90° angle was collected using a 10 s averaging acquisition time. Particle translational diffusion coefficients were calculated from autocorrelated light intensity data (usually 30–40 points) and converted to the hydrodynamic radius (R h) using the Stokes–Einstein equation. A distribution plot of intensity versus R h was calculated using the Sedfit 9.3 analysis software, and intensity-weighted mean R h values were obtained from each peak.
# human amylin (hIAPP) [3] = biological target: T1, human amylin (hIAPP); test: Kinetic analysis of amylin aggregation (ThT, two-step autocatalytic aggregation model); type: biochemical; details: mean ± S.D.; for t 0 (time point when the aggregation starts): 10% of highest ThT fluorescence; for t 1/2 (aggregation halftime): 50% of highest ThT fluorescence; for t 1 (aggregation endpoint): 90% of highest ThT fluorescence; for k / k e (elongation constant) / k n (nucleation constant) / ρ (ratio of kn to k): ThT data, autocatalytic aggregation model
# Method: Kinetic analysis was performed according to the model of autocatalytic aggregation. According to Sabaté et al., aggregation is a two-step process, comprising nucleation (described by the k n constant) and fibrillation phases (represented by the k e constant). Two constants (k n and k e) are calculated using the eq : 5 f=ρ{e^[(1+ρ)kt]−1}/{1+ρe^[(1+ρ)kt]} where k = k e a (where a represents the initial concentration of the aggregating peptide), f stands for a fraction of the fibrillar form in the system, and ρ denotes the dimensionless ratio of k n to k. The parameters k and ρ were calculated first, then k n and k e.
# Data were normalized as a fraction of the highest fluorescence from the three trials and fitted into the model of autocatalytic aggregation. The same procedure was repeated for the remaining trials. The second calculation aimed to find the time parameters of the aggregation process: t 0 (time point when the aggregation starts), t 1/2 (aggregation halftime), and t 1 (aggregation endpoint). t 0, t 1/2, and t 1 were calculated as 10%, 50%, and 90% of the highest fluorescence measurements from the three trials, respectively. All calculations were performed using GraphPad Prism 9.5.1, Statistica 13.3.721.1, and Microsoft Excel 2304.
# human amylin (hIAPP) [4] = biological target: T1, human amylin (hIAPP); test: Thioflavin T (ThT) fluorescence assay of amylin aggregation; type: biochemical; details: read-out: IC50 of amylin aggregation inhibition
# Aβ = tested on: Aβ; parameters: method as in Panek et al.; details: ref Panek et al.; cited from earlier work
# Pancreatic INS-1E cells = test: MTT cytotoxicity assay of amylin aggregates aged with or without inhibitors; type: cell-based
# Method: In this study, we utilized Pancreatic INS-1E cells (Department of Cell Physiology and Metabolism, University Medical Center, Switzerland) due to their close physiological similarity to native β-cells, making them highly relevant to our experimental objectives. Pancreatic INS-1E cells were grown in RPMI 1640 medium, supplemented with 2 mM glutamine, 5% fetal calf serum, 10 mM HEPES (pH 7.4), 1 mM sodium pyruvate, 50 μM 2-mercaptoethanol, 100 units/mL penicillin, and 0.1 mg/mL streptomycin. The culturing environment was maintained at 37 °C, 5% CO2, pH 7.4.
# The toxicity of human amylin aggregates in the presence or absence of different compounds in the presence of 2% DMSO was assessed by the 3-(4,5-dimethylthiazol-2-yl)-2,5-diphenyltetrazolium bromide (MTT) reduction assay. The cells were cultured and then seeded into 96-well plates and grown for 24 h prior to exposure to different intermediates of amylin or a mixture of amylin with the MTDLs. The final amylin concentration within the culture medium was 5 μM. Cell viability was expressed as the percentage of MTT reduction, using cells treated with the same buffer volume as a reference (100% MTT reduction). The values (averages ± S.D.) were obtained from three independent experiments.
SMILES,inhibition at 10 µM (human amylin (hIAPP) [1]) [%],inhibition at 10 µM (human amylin (hIAPP) [2]) [%],ThT inhibition % (mean ± SEM) (human amylin (hIAPP) [1]) [%],t 0 (time point when the aggregation starts) (human amylin (hIAPP) [3]) [h],t 1/2 (aggregation halftime) (human amylin (hIAPP) [3]) [h],t 1 (aggregation endpoint) (human amylin (hIAPP) [3]) [h],k (human amylin (hIAPP) [3]) [h^–1],k e (elongation constant) (human amylin (hIAPP) [3]),k n (nucleation constant) (human amylin (hIAPP) [3]),ρ (ratio of kn to k) (human amylin (hIAPP) [3]),IC50 (human amylin (hIAPP) [4]) [µM],inhibition of Aβ aggregation in the ThT assay (Aβ),average particle size of amylin by DLS (human amylin (hIAPP) [2]; amylin + compound) [nm],"cell viability difference versus the sample with amylin fibrils (Pancreatic INS-1E cells; INS-1E cells 24 h, amylin aggregates aged 36 h with 2.92 μM compound 18 or 3.31 μM compound 21)",effect on INS-1E cell viability in presence of amylin (Pancreatic INS-1E cells; INS-1E cells cultured with the MTDLs)
COc1ccc(CNCC(O)CCN2CCN(Cc3ccccc3)CC2)cc1 (stereo not shown) [Compound 10],31.1 ± 0.9,27.8 ± 3,,,,,,,,,,,,,
OC(CCN1CCN(C(c2ccccc2)c2ccccc2)CC1)CNCc1ccccc1 (stereo not shown) [Compound 11],20.8 ± 0.8,19 ± 1.8,,,,,,,,,,,,,
COc1ccc(CNCC(O)CCN2CCN(C(c3ccccc3)c3ccccc3)CC2)cc1 (stereo not shown) [Compound 12],11.9 ± 0.7,20.7 ± 2,,,,,,,,,,,,,
CC(C)(C)c1cccc(CNCC(O)CCN2CCN(C(c3ccccc3)c3ccccc3)CC2)c1 (stereo not shown) [Compound 13],~75,86.7 ± 4.5,74.7 ± 0.7,12.49 ± 0.19,20.41 ± 0.20,28.41 ± 0.23,0.2729 ± 0.0025,18195 ± 165 M^–1h^–1,0.0011 ± 0.0001 h^–1,0.0038 ± 0.0002,3.75,81.4% and ~82%,,,
COc1ccc(CNCC(O)CCN2CCN(C(c3ccc(F)cc3)c3ccc(F)cc3)CC2)cc1 (stereo not shown) [Compound 14],5 ± 4.4,7.8 ± 0.5,,,,,,,,,,,,,
OC(CNCc1ccccc1)CNCC(c1ccccc1)c1ccccc1 (stereo not shown) [Compound 15],37.4 ± 0.4,25 ± 2.5,,,,,,,,,,,,,
OC(CNCCC(c1ccccc1)c1ccccc1)CNCc1ccccc1 (stereo not shown) [Compound 16],58.8 ± 0.7,77.9 ± 6,,11.03 ± 0.22,18.22 ± 0.28,25.52 ± 0.37,0.2996 ± 0.0048,19973 ± 320 M^–1h^–1,0.0012 ± 0.0001 h^–1,0.0042 ± 0.0003,3.1,,10,,
CC(C)(C)c1cccc(CNCC(O)CNCC(c2ccccc2)c2ccccc2)c1 (stereo not shown) [Compound 17],> 88,99 ± 6.5,88.1 ± 0.9,13.13 ± 1.09,21.25 ± 0.20,29.48 ± 1.02,0.2687 ± 0.0374,17913 ± 2489 M^–1h^–1,0.0010 ± 0.0006 h^–1,0.0040 ± 0.0028,3.65,,,,
OC(CCNCC(c1ccccc1)c1ccccc1)CNCc1ccccc1 (stereo not shown) [Compound 19],33.7 ± 1.1,27.5 ± 3,,,,,,,,,,,,,
OC(CCNCCC(c1ccccc1)c1ccccc1)CNCc1ccccc1 (stereo not shown) [Compound 20],12.6 ± 0.4,20.4 ± 2.5,,,,,,,,,,,,,
CC(C)(C)c1cccc(CNCC(O)CCNCC(c2ccccc2)c2ccccc2)c1 (stereo not shown) [Compound 21],> 88,99.2 ± 6,90.8 ± 1.4,9.54 ± 0.29,18.66 ± 0.56,28.19 ± 1.42,0.2273 ± 0.0221,15155 M^–1h^–1 and 15155 ± 1477 M^–1h^–1,0.003 h^–1 and 0.0032 ± 0.0007 h^–1,0.0145 ± 0.0044,3.53,,,approximately 30 % points,retained cell viability
